# Measured values from patent US6881741B2 (ViroChem Pharma Inc., priority 2001, dated 2005).
# Counter-ions that a name gives are not always drawn.
# Molecular target: recombinant HCV NS5B (HCV RNA-dependent RNA polymerase) (Hepatitis C virus genotype 1b, UniProt P26663)
# Assay: biochemical
# Conditions: HCV polymerase activity, list of compounds of Example 27; read-out: IC50 (polymerase activity)
# recombinant HCV NS5B (HCV RNA-dependent RNA polymerase), sequence (P26663 2420-3010 limits assumed): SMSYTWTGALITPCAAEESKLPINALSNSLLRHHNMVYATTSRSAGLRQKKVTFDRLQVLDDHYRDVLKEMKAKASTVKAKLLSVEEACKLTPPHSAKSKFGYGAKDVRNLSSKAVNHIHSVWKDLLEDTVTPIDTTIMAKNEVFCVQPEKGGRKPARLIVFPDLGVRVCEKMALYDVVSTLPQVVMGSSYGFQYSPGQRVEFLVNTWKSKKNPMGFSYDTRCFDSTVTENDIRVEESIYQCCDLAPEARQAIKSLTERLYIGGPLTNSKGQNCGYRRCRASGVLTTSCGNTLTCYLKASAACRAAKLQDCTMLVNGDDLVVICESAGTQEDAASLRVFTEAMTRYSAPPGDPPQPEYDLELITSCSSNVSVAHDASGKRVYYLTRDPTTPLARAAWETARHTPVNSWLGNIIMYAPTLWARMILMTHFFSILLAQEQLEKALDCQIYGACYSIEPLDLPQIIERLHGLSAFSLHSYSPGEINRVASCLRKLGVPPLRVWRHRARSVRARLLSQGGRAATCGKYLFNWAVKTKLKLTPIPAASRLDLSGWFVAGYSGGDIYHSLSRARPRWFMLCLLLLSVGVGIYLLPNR
row,SMILES,IC50 [µM]
1,"CC(C)N(C(=O)[C@@H]1CC[C@@H](C)C[C@@H]1O)c1cc(-c2ccccc2)sc1C(=O)O [Compound 540, 3-[((1R,2S,4R)-2-HYDROXY-4-METHYL- CYCLOHEXANECARBONYL)-ISOPROPYL- AMINO]-5-PHENYL-THIOPHENE-2- CARBOXYLIC ACID]",< 5
2,"O=C(O)c1sc(-c2ccccc2)cc1N(Cc1ccc([N+](=O)[O-])cc1)C(=O)CC1CCCC1 [Compound 443, 3-[(2-CYCLOPENTYL-ACETYL)-(4-NITRO- BENZYL)-AMINO]-5-PHENYL-THIOPHENE- 2-CARBOXYLIC ACID]",< 5
3,"O=C(O)c1sc(-c2ccccc2)cc1N(Cc1ccc(F)cc1F)C(=O)C1CCCCC1 [Compound 490, 3-[CYCLOHEXANECARBONYL-(2,4- DIFLUORO-BENZYL)-AMINO]-5-PHENYL- THIOPHENE-2-CARBOXYLIC ACID]",< 5
4,"CC(C)CC(=O)N(Cc1ccccc1)c1cc(-c2ccccc2)sc1C(=O)O [Compound 453, 3-[BENZYL-(3-METHYL-BUTYRYL)- AMINO]-5-PHENYL-THIOPHENE-2- CARBOXYLIC ACID]",< 5
5,"O=C(O)c1sc(-c2ccccc2)cc1N(Cc1ccccc1Cl)C(=O)C1CCC1 [Compound 425, 3-[(2-CHLORO-BENZYL)- CYCLOBUTANECARBONYL-AMINO]-5- PHENYL-THIOPHENE-2-CARBOXYLIC ACID]",5 to 20
6,"O=C(O)c1sc(-c2ccccc2)cc1N(Cc1ccc(Cl)cc1)C(=O)CC1CCCC1 [Compound 463, 3-[(4-CHLORO-BENZYL)-(2- CYCLOPENTYL-ACETYL)-AMINO]-5- PHENYL-THIOPHENE-2-CARBOXYLIC ACID]",< 5
7,"CC(C1CCNCC1)N(C(=O)c1ccc(Cl)cc1Cl)c1cc(-c2ccccc2)sc1C(=O)O (stereo not drawn) [Compound 529, 3-[(2,4-DICHLORO-BENZOYL)-(1- PIPERIDIN-4-YL-ETHYL)-AMINO]-5- PHENYL-THIOPHENE-2- CARBOXYLIC ACID; COMPOUND WITH TRIFLUORO-ACETIC ACID]",< 5
8,"O=C(O)c1sc(-c2ccccc2)cc1N(Cc1ccccc1)C(=O)CC1CCCC1 [Compound 487, 3-[BENZYL-(2-CYCLOPENTYL-ACETYL)- AMINO]-5-PHENYL-THIOPHENE-2- CARBOXYLIC ACID]",< 5
9,"CC1CCC(C(=O)N(c2cc(-c3ccccc3)sc2C(=O)O)C(C)C)C(O)C1 (stereo not drawn) [Compound 402, 3-[(2-HYDROXY-4-METHYL- CYCLOHEXANECARBONYL)-ISOPROPYL- AMINO]-5-PHENYL-THIOPHENE-2- CARBOXYLIC ACID]",< 5
10,"O=C(O)c1sc(-c2ccccc2)cc1N(Cc1ccc(F)cc1F)C(=O)C1CCC1 [Compound 495, 3-[CYCLOBUTANECARBONYL-(2,4- DIFLUORO-BENZYL)-AMINO]-5-PHENYL- THIOPHENE-2-CARBOXYLIC ACID]",< 5
11,"CN(C(=O)C1CCCCC1)c1cc(-c2ccccc2)sc1C(=O)O [Compound 498, 3-(CYCLOHEXANECARBONYL-METHYL- AMINO)-5-PHENYL-THIOPHENE-2- CARBOXYLIC ACID]",< 5
12,"Cc1ccc(S(=O)(=O)Nc2cc(-c3ccccc3)sc2C(=O)NCC(=O)O)cc1 [Compound 551, {[5-PHENYL-3-(TOLUENE-4- SULFONYLAMINO)-THIOPHENE-2- CARBONYL]-AMINO}-ACETIC ACID]",5 to 20
13,"CC(C)C(=O)N(Cc1ccccc1Cl)c1cc(-c2ccccc2)sc1C(=O)O [Compound 421, 3-[(2-CHLORO-BENZYL)-ISOBUTYRYL- AMINO]-5-PHENYL-THIOPHENE-2- CARBOXYLIC ACID]",5 to 20

# Same assay, conditions: related polymerase activity (Example 27 list); read-out: IC50
row,SMILES,IC50 [µM]
1,"Cc1ccc(C(=O)N(C)c2cc(-c3ccc(CO)cc3)sc2C(=O)O)cc1 [Compound 195, 5-(4-HYDROXYMETHYL-PHENYL)-3-[METHYL-(4-METHYL-BENZOYL)-AMINO]-THIOPHENE-2-CARBOXYLIC ACID]",5 to 20
2,"Cc1cccc(N2CCN(C(=O)Nc3cc(-c4ccccc4)sc3C(=O)O)CC2)n1 [Compound 182, 3-{[4-(6-METHYL-PYRIDIN-2-YL)-PIPERAZINE-1-CARBONYL]-AMINO}-5-PHENYL-THIOPHENE-2-CARBOXYLIC ACID HYDROCHLORIDE]",5 to 20
3,"O=C(O)c1sc(-c2ccccc2)cc1NS(=O)(=O)c1cnc(Cl)c(Br)c1 [Compound 36, 3-(5-BROMO-6-CHLORO-PYRIDINE-3-SULFONYLAMINO)-5-PHENYL-THIOPHENE-2-CARBOXYLIC ACID]",> 20
4,"Cc1ccc(C(=O)N(C)c2cc(-c3ccc([N+](=O)[O-])cc3)sc2C(=O)O)cc1 [Compound 194, 3-[METHYL-(4-METHYL-BENZOYL)-AMINO]-5-(4-NITRO-PHENYL)-THIOPHENE-2-CARBOXYLIC ACID]",5 to 20
5,"Cc1ccc(C(=O)N(C)c2cc(-c3ccc(F)cc3F)sc2C(=O)O)cc1 [Compound 214, 5-(2,4-DIFLUORO-PHENYL)-3-[METHYL-(4-METHYL-BENZOYL)-AMINO]-THIOPHENE-2-CARBOXYLIC ACID]",5 to 20
6,"CC(c1ccccc1)N(C(=O)c1ccc(Cl)cc1Cl)c1cc(-c2ccccc2)sc1C(=O)O (stereo not drawn) [Compound 264, 3-[(2,4-DICHLORO-BENZOYL)-(1-PHENYL-ETHYL)-AMINO]-5-PHENYL-THIOPHENE-2-CARBOXYLIC ACID]",< 5
7,"Cc1ccccc1S(=O)(=O)Nc1cc(-c2ccc3[nH]ccc3c2)sc1C(=O)O [Compound 260, 5-(1H-INDOL-5-YL)-3-(TOLUENE-2-SULFONYLAMINO)-THIOPHENE-2-CARBOXYLIC ACID]",5 to 20
8,"COc1ccc(C(=O)N(C)c2cc(-c3ccccc3)sc2C(=O)O)cc1OC [Compound 276, 3-[(3,4-DIMETHOXY-BENZOYL)-METHYL-AMINO]-5-PHENYL-THIOPHENE-2-CARBOXYLIC ACID]",> 20
9,"Cc1ccccc1S(=O)(=O)Nc1cc(-c2cccc([N+](=O)[O-])c2)sc1C(=O)O [Compound 63, 5-(3-NITRO-PHENYL)-3-(TOLUENE-2-SULFONYLAMINO)-THIOPHENE-2-CARBOXYLIC ACID]",< 5
10,"O=C(O)c1sc(-c2ccc([N+](=O)[O-])cc2)cc1NS(=O)(=O)c1ccccn1 [Compound 129, 5-(4-NITRO-PHENYL)-3-(PYRIDINE-2-SULFONYLAMINO)-THIOPHENE-2-CARBOXYLIC ACID]",5 to 20
11,"O=C(O)c1sc(-c2ccccc2)cc1NS(=O)(=O)c1ccccc1Cl [Compound 29, 3-(2-CHLORO-BENZENESULFONYLAMINO)-5-PHENYL-THIOPHENE-2-CARBOXYLIC ACID]",5 to 20
12,"Cc1ccc(C(=O)N(C)c2cc(-c3ccccc3)sc2C(=O)O)c(F)c1F [Compound 280, 3-[(2,3-DIFLUORO-4-METHYL-BENZOYL)-METHYL-AMINO]-5-PHENYL-THIOPHENE-2-CARBOXYLIC ACID]",< 5
13,"CC(=O)c1ccc(-c2cc(NS(=O)(=O)c3ccc(C)cc3C)c(C(=O)O)s2)cc1 [Compound 236, 5-(4-ACETYL-PHENYL)-3-(2,4-DIMETHYL-BENZENESULFONYLAMINO)-THIOPHENE-2-CARBOXYLIC ACID]",< 5
14,"C/C=C/C(=O)N(CC)c1cc(-c2ccccc2)sc1C(=O)O [Compound 394, 3-(BUT-2-ENOYL-ETHYL-AMINO)-5- PHENYL-THIOPHENE-2-CARBOXYLIC ACID]",5 to 20
15,"COc1cccc(CN(C(=O)c2ccc(C)cc2)c2cc(-c3ccccc3)sc2C(=O)O)c1 [Compound 344, 3-[(3-METHOXY-BENZYL)-(4-METHYL- BENZOYL)-AMINO]-5-PHENYL- THIOPHENE-2-CARBOXYLIC ACID]",< 5
16,"Cc1ccc(C(=O)N(Cc2cccc(Cl)c2)c2cc(-c3ccccc3)sc2C(=O)O)cc1 [Compound 335, 3-[(3-CHLORO-BENZYL)-(4-METHYL- BENZOYL)-AMINO]-5-PHENYL- THIOPHENE-2-CARBOXYLIC ACID]",< 5
17,"Cc1ccc(S(=O)(=O)N(C)c2cc(-c3ccccc3)sc2C(=O)O)c(C)c1 [Compound 235, 3-[(2,4-DIMETHYL-BENZENESULFONYL)-METHYL-AMINO]-5-PHENYL-THIOPHENE-2-CARBOXYLIC ACID]",< 5
18,"C=CCN(C(=O)Cc1ccc(C(F)(F)F)cc1)c1cc(-c2ccccc2)sc1C(=O)O [Compound 352, 3-{ALLYL-[2-(4-TRIFLUOROMETHYL- PHENYL)-ACETYL]-AMINO}-5-PHENYL- THIOPHENE-2-CARBOXYLIC ACID]",> 20
19,"Cc1ccc(C)c(S(=O)(=O)Nc2cc(-c3ccccc3)sc2C(=O)O)c1 [Compound 21, 3-(2,5-DIMETHYL-BENZENESULFONYLAMINO)-5-PHENYL-THIOPHENE-2-CARBOXYLIC ACID]",5 to 20
20,"C=Cc1cc(C)ccc1C(=O)N(c1cc(-c2ccccc2)sc1C(=O)O)C(C)C [Compound 395, 3-[ISOPROPYL-(4-METHYL-2-VINYL- BENZOYL)-AMINO]-5-PHENYL- THIOPHENE-2-CARBOXYLIC ACID]",5 to 20
21,"CN(C(=O)c1cccs1)c1cc(-c2ccccc2)sc1C(=O)O [Compound 75, 3-(METHYL-(THIOPHENE-2-CARBONYL)-AMINO]-5-PHENYL-THIOPHENE-2-CARBOXYLIC ACID]",5 to 20
22,"O=C(Nc1cc(-c2ccccc2)sc1C(=O)O)c1cccs1 [Compound 74, 5-PHENYL-3-[(THIOPHENE-2-CARBONYL)-AMINO]-THIOPHENE-2-CARBOXYLIC ACID]",5 to 20
23,"C=CCN(C(=O)Cc1ccc(Cl)cc1Cl)c1cc(-c2ccccc2)sc1C(=O)O [Compound 348, 3-{ALLYL-[2-(2,4-DICHLORO-PHENYL)- ACETYL]-AMINO}-5-PHENYL-THIOPHENE- 2-CARBOXYLIC ACID]",5 to 20
24,"CC1CCCCC1C(=O)N(c1cc(-c2ccccc2)sc1C(=O)O)C(C)C (stereo not drawn) [Compound 378, 3-[ISOPROPYL-(2-METHYL- CYCLOHEXANECARBONYL)-AMINO]-5- PHENYL-THIOPHENE-2-CARBOXYLIC ACID]",5 to 20
25,"Cc1ccc(C(=O)N(c2cc(-c3cccc(C(F)(F)F)c3)sc2C(=O)O)C(C)C)cc1 [Compound 304, 3-[ISOPROPYL-(4-METHYL-BENZOYL)- AMINO]-5-(3-TRIFLUOROMETHYL- PHENYL)-THIOPHENE-2-CARBOXYLIC ACID]",< 5
26,"CC1CCC(C(=O)N(C)c2cc(-c3ccccc3)sc2C(=O)O)CC1 (stereo not drawn) [Compound 286, 3-[METHYL-(4-METHYL-CYCLOHEXANECARBONYL)-AMINO]-5-PHENYL THIOPHENE-2-CARBOXYLIC ACID]",< 5
